Measured values reported in patent publication US20240360151A1 (SANOFI, priority 2023, published 2024).
Where a name gives a salt, the structure may show the parent alone.

These molecules were tested against T1, NLRP3 inflammasome (Homo sapiens, UniProt Q96P20) (assay: IL-1β secretion assay (NLRP3 IC50) in LPS-primed, nigericin-activated THP-1 cells, HTRF). Conditions: monocytic THP-1 cells; LPS 10 ng/mL 3 h priming, then compound + nigericin 10 μM 2 h; relative IC50, 10 concentrations, geometric mean.
T1 construct: endogenous in cells; host or cells: THP-1 monocytic cells
Assay type: cell-based
Method in brief: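 IL-1β in supernatant read by HTRF after 2 h co-incubation of compound (0.1% DMSO, 10 concentrations, 1:3 series) with nigericin at 10 μM final, following 3 h LPS (10 ng/mL) priming of THP-1 monocytes at 37° C. Inhibition normalised to unactivated and no-compound controls; geometric-mean relative IC50 from 4-parameter logistic model.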

T1 sequence (Q96P20 whole entry): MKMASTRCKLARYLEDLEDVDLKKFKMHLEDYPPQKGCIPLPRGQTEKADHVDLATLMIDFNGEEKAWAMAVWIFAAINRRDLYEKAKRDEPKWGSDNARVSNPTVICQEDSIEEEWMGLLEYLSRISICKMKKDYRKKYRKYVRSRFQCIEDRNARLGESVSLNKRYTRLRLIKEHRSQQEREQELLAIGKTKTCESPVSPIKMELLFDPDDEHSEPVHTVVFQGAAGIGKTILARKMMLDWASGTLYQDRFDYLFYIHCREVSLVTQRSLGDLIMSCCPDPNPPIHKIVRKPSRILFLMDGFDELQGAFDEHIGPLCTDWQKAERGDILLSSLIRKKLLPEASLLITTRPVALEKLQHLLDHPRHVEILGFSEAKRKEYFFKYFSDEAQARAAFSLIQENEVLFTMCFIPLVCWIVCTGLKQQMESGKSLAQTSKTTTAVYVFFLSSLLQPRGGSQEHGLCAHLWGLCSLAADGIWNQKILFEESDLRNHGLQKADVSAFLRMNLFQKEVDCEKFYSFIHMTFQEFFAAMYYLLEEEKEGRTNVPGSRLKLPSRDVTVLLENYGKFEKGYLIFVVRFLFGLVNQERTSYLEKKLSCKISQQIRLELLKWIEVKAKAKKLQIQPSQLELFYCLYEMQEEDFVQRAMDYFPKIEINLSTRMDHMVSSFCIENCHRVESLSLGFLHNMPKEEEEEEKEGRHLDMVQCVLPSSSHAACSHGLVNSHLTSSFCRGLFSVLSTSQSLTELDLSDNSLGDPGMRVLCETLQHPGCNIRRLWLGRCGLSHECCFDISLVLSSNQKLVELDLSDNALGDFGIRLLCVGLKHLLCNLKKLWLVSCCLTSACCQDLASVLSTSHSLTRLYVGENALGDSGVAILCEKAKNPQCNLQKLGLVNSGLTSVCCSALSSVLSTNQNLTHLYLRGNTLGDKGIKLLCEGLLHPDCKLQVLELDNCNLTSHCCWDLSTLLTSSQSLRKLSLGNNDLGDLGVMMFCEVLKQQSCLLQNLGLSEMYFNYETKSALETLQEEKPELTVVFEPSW

`Cc1cc(C)c(-c2ccc(N3CC4(CO)CCCC3C4)nn2)c(O)c1` (stereo not drawn) [Example 114, 2-[6-[1-(hydroxymethyl)-6-azabicyclo[3.2.1]octan-6-yl]pyridazin-3-yl]-3,5-dimethyl-phenol] and `CCN[C@H]1CCCN(c2ccc(-c3c(C)cc(C)cc3O)nn2)C1` [Example 68, 2-[6-[(3S)-3-(ethylamino)-1-piperidyl]pyridazin-3-yl]-3,5-dimethyl-phenol] are within 1.5-fold of each other in IC50: 958 nM for the first, 1220 nM for the second.

Compared with `NCC1CCN(c2ccc(-c3c(O)cc(Cl)cc3Cl)nn2)CC1` [Example 19, 2-[6-[4-(aminomethyl)-1-piperidyl]pyridazin-3-yl]-3,5-dichloro-phenol], `O=S1(=O)CCN(c2ccc(-c3c(O)cc(Cl)cc3Cl)nn2)CC1` [Example 399, 3,5-dichloro-2-[6-(1,1-dioxo-1,4-thiazinan-4-yl)pyridazin-3-yl]phenol] is 2.6-fold lower in IC50: 1480 nM for the first, 564 nM for the second. The second is the more potent here.

First: Cc1cc(C(F)(F)F)cc(O)c1-c1ccc(N2CCC[C@@H](CO)C2=O)nn1 (single isomer, unassigned) [Example 288]
Second: Cc1cc(C(F)(F)F)cc(O)c1-c1ccc(N2CCC[C@H]3[C@@H]2CCCN3C)nn1 [Example 515, 2-[6-[(4aS,8aS)-5-methyl-2,3,4,4a,6,7,8,8a-octahydro-1,5-naphthyridin-1-yl]pyridazin-3-yl]-3-methyl-5-(trifluoromethyl)phenol]
The IC50 of the first is 3.2-fold higher: 143 nM for the first, 44 nM for the second.

`CCN1CC[C@H]2CCN(c3ccc(-c4c(C)cccc4O)nn3)[C@H]2C1` (single isomer, unassigned) [Example 498] and `CCN1CC[C@H]2CCN(c3ccc(-c4c(C)cc(C)cc4O)nn3)[C@H]2C1` (single isomer, unassigned) [Example 504] are within 1.5-fold of each other in IC50: 951 nM for the first, 1080 nM for the second.

Going from `Cc1cc(C(F)(F)F)cc(O)c1-c1ccc(N2CCO[C@H]3CNC[C@H]32)nn1` (racemic) [Example 320, 3-methyl-2-[6-[rac-(4aR,7aS)-3,4a,5,6,7,7a-hexahydro-2H-pyrrolo[3,4-b][1,4]oxazin-4-yl]pyridazin-3-yl]-5-(trifluoromethyl)phenol] to `Cc1cc(C(F)(F)F)cc(O)c1-c1ccc(N2CCO[C@@H]3CNC[C@H]32)nn1` (racemic) [Example 318, 3-methyl-2-[6-[rac-(4aR,7aR)-3,4a,5,6,7,7a-hexahydro-2H-pyrrolo[3,4-b][1,4]oxazin-4-yl]pyridazin-3-yl]-5-(trifluoromethyl)phenol; hydrochloride], the IC50 rises from 116 nM to 883 nM (7.6-fold). The first is the more potent here.

First: Cc1cc(N2CC[C@H]3CCN(C)C[C@H]32)nnc1-c1ccc(Cl)cc1O (single isomer, unassigned) [Example 469]
Second: Cc1cc(Cl)cc(O)c1-c1ccc(N2CC[C@H]3CCN(C)C[C@H]32)nn1 (single isomer, unassigned) [Example 503]
The IC50 of the first is 2-fold higher: 1 nM for the first, 0.5 nM for the second. The second is the more potent here.

First: CC(=O)N1CC[C@H]2[C@@H]1CCN2c1ccc(-c2c(C)cc(C(F)(F)F)cc2O)nn1 (racemic) [Example 377, 1-[rac-(3aS,6aS)-1-[6-[2-hydroxy-6-methyl-4-(trifluoromethyl)phenyl]pyridazin-3-yl]-2,3,3a,5,6,6a-hexahydropyrrolo[3,2-b]pyrrol-4-yl]ethanone]
Second: Cc1cc(C(F)(F)F)cc(O)c1-c1ccc(N2CC[C@H]3[C@@H]2CCN3C)nn1 (racemic) [Example 484, 3-methyl-2-[6-[rac-(3aS,6aS)-1-methyl-2,3,3a,5,6,6a-hexahydropyrrolo[3,2-b]pyrrol-4-yl]pyridazin-3-yl]-5-(trifluoromethyl)phenol]
The IC50 of the first is 12-fold higher: 296 nM for the first, 25 nM for the second. The second is the more potent here.

Compared with `CC(=O)N1CC[C@H]2OCCN(c3cc(C(F)F)c(-c4ccc(Cl)cc4O)nn3)[C@H]2C1` [Example 442, 1-[(4aS,8aR)-4-[6-(4-chloro-2-hydroxy-phenyl)-5-(difluoromethyl)pyridazin-3-yl]-3,4a,5,7,8,8a-hexahydro-2H-pyrido[4,3-b][1,4]oxazin-6-yl]ethanone], `CCc1cccc(O)c1-c1ccc(N2CCO[C@@H]3CCN(C(C)=O)C[C@@H]32)nn1` [Example 424, 1-[(4aS,8aR)-4-[6-(2-ethyl-6-hydroxy-phenyl)pyridazin-3-yl]-3,4a,5,7,8,8a-hexahydro-2H-pyrido[4,3-b][1,4]oxazin-6-yl]ethanone] is 2-fold higher in IC50: 195 nM for the first, 396 nM for the second. The first is the more potent here.

Compared with `Cc1cc(N2CC[C@H]3CCN(C)C[C@H]32)nnc1-c1ccc(Cl)cc1O` (single isomer, unassigned) [Example 468], `Cc1ccc(-c2nnc(N3CC[C@H]4CCN(C)C[C@H]43)cc2C(F)F)c(O)c1` (single isomer, unassigned) [Example 507] is 540-fold lower in IC50: 544 nM for the first, 1 nM for the second.

First: CCN1CC[C@H]2OCCN(c3ccc(-c4c(C)cc(C)cc4O)nn3)[C@H]2C1 [Example 404, 2-[6-[(4aS,8aR)-6-ethyl-3,4a,5,7,8,8a-hexahydro-2H-pyrido[4,3-b][1,4]oxazin-4-yl]pyridazin-3-yl]-3,5-dimethyl-phenol]
Second: Cc1cc(C)c(-c2ccc(N3CCO[C@@H]4CCN(CCCF)C[C@@H]43)nn2)c(O)c1 [Example 527, 2-[6-[(4aS,8aR)-6-(3-fluoropropyl)-3,4a,5,7,8,8a-hexahydro-2H-pyrido[4,3-b][1,4]oxazin-4-yl]pyridazin-3-yl]-3,5-dimethyl-phenol]
The IC50 of the first is 27-fold lower: 0.75 nM for the first, 20 nM for the second. The first is the more potent here.

First: CC(=O)N1C[C@@H]2OCCN(c3ccc(-c4c(C)cc(C(F)(F)F)cc4O)nn3)[C@@H]2C1 (racemic) [Example 335, 1-[rac-(4aR,7aS)-4-[6-[2-hydroxy-6-methyl-4-(trifluoromethyl)phenyl]pyridazin-3-yl]-2,3,4a,5,7,7a-hexahydropyrrolo[3,4-b][1,4]oxazin-6-yl]ethanone]
Second: CC(=O)N1C[C@@H]2[C@@H](C1)OCCN2c1ccc(-c2c(C)cc(C(F)(F)F)cc2O)nn1 (racemic) [Example 337, 1-[rac-(4aR,7aR)-4-[6-[2-hydroxy-6-methyl-4-(trifluoromethyl)phenyl]pyridazin-3-yl]-2,3,4a,5,7,7a-hexahydropyrrolo[3,4-b][1,4]oxazin-6-yl]ethanone]
The IC50 of the first is 6-fold lower: 481 nM for the first, 2880 nM for the second. The first is the more potent here.

First: CCc1cccc(O)c1-c1ccc(N2CC[C@@H]3CCN(C)C[C@@H]32)nn1 (single isomer, unassigned) [Example 422]
Second: CCc1cc(C)cc(O)c1-c1ccc(N2CC[C@H]3CCN(C)C[C@H]32)nn1 (single isomer, unassigned) [Example 476]
The IC50 of the first is 5.5-fold higher: 1140 nM for the first, 209 nM for the second.

Compared with `Cc1cc(C)c(-c2ccc(N3CC[C@@]4(CN(C)CCO4)C3)nn2)c(O)c1` [Example 446, 3,5-dimethyl-2-[6-[(5R)-9-methyl-6-oxa-2,9-diazaspiro[4.5]decan-2-yl]pyridazin-3-yl]phenol], `CC(=O)N1CC[C@H]2CCN(c3ccc(-c4c(C)cc(C)cc4O)nn3)[C@H]2C1` (racemic) [Example 394, 1-[rac-(3aR,7aR)-1-[6-(2-hydroxy-4,6-dimethyl-phenyl)pyridazin-3-yl]-3,3a,4,5,7,7a-hexahydro-2H-pyrrolo[2,3-c]pyridin-6-yl]ethanone] is 2.6-fold lower in IC50: 815 nM for the first, 310 nM for the second.

Compared with `CC(=O)N1C[C@@H]2OCCN(c3ccc(-c4c(C)cc(C)cc4O)nn3)[C@H]2C1` (racemic) [Example 257, 1-[rac-(4aS,7aS)-4-[6-(2-hydroxy-4,6-dimethylphenyl)pyridazin-3-yl]-2,3,4a,5,7,7a-hexahydropyrrolo[3,4-b][1,4]oxazin-6-yl]ethanone], `Cc1cc(C)c(-c2ccc(N3CCO[C@@H]4COCC[C@@H]43)nn2)c(O)c1` (racemic) [Example 111, 2-[6-[rac-(4aS,8aS)-3,4a,5,7,8,8a-hexahydro-2H-pyrano[3,4-b][1,4]oxazin-1-yl]pyridazin-3-yl]-3,5-dimethyl-phenol] is 15-fold lower in IC50: 7490 nM for the first, 496 nM for the second. The second is the more potent here.

First: Cc1cc(C(F)(F)F)cc(O)c1-c1ccc(N2CC3CCC2CN(C)C3)nn1 (stereo not drawn) [Example 417, 3-methyl-2-[6-(3-methyl-3,6-diazabicyclo[3.2.2]nonan-6-yl)pyridazin-3-yl]-5-(trifluoromethyl)phenol]
Second: CC(=O)N1CC[C@@H]2CCN(c3ccc(-c4c(C)cc(C(F)(F)F)cc4O)nn3)[C@@H]2C1 [Example 370, 1-[(3aS,7aS)-1-[6-[2-hydroxy-6-methyl-4-(trifluoromethyl)phenyl]pyridazin-3-yl]-3,3a,4,5,7,7a-hexahydro-2H-pyrrolo[2,3-c]pyridin-6-yl]ethanone]
The IC50 of the first is 1.8-fold lower: 716 nM for the first, 1270 nM for the second. The first is the more potent here.

Compared with `Cc1cc(N2CCO[C@@H]3CCN(C)C[C@@H]32)nnc1-c1ccc(F)cc1O` [Example 480, 2-[6-[(4aS,8aR)-6-methyl-3,4a,5,7,8,8a-hexahydro-2H-pyrido[4,3-b][1,4]oxazin-4-yl]-4-methyl-pyridazin-3-yl]-5-fluoro-phenol], `CN1CC[C@H]2OCCN(c3ccc(-c4c(O)cccc4C(F)(F)F)nn3)[C@H]2C1` [Example 402, 2-[6-[(4aS,8aR)-6-methyl-3,4a,5,7,8,8a-hexahydro-2H-pyrido[4,3-b][1,4]oxazin-4-yl]pyridazin-3-yl]-3-(trifluoromethyl)phenol] is 3.7-fold higher in IC50: 6 nM for the first, 22 nM for the second. The first is the more potent here.

`OC[C@@H]1CCN1c1ccc(-c2c(O)cc(Cl)cc2Cl)nn1` [Example 117, 3,5-dichloro-2-[6-[(2S)-2-(hydroxymethyl)azetidin-1-yl]pyridazin-3-yl]phenol] and `CN(C)C[C@@H]1CCCN(c2ccc(-c3c(O)cc(Cl)cc3Cl)nn2)C1` [Example 51, 3,5-dichloro-2-[6-[(3S)-3-[(dimethylamino)methyl]-1-piperidyl]pyridazin-3-yl]phenol] are within 1.5-fold of each other in IC50: 869 nM for the first, 1050 nM for the second.

`CC(=O)N1CC[C@H]2CCN(c3cc(C)c(-c4ccc(C(F)(F)F)cc4O)nn3)[C@H]2C1` [Example 514, 1-[(3aR,7aR)-1-[6-[2-hydroxy-4-(trifluoromethyl)phenyl]-5-methyl-pyridazin-3-yl]-3,3a,4,5,7,7a-hexahydro-2H-pyrrolo[2,3-c]pyridin-6-yl]ethanone] and `Cc1cc(C(F)(F)F)cc(O)c1-c1ccc(N2CCO[C@H](CC#N)C2)nn1` (single isomer, unassigned) [Example 327] are within 1.5-fold of each other in IC50: 196 nM for the first, 292 nM for the second.
